Test results from patent US20230414626A1, “INDUCTION OF FERROPTOSIS FOR CANCER THERAPY” (Memorial Sloan Kettering Cancer Center, priority 2020, published 2023).

System: PI3K-mutated BT474 breast cancer xenograft tumors
Assay: In vivo xenograft mouse model, GPX4-iKO BT474
Details: nu/nu mice, CCI-779 2 mg/kg daily i.p., Dox diet induces GPX4 knockout
Procedure: FIG. 6 A-F. Combination of mTORC1 inhibition with ferroptosis induction leads to tumor regression in vivo. (A) CRISPR/Cas9-mediated, Dox-induced GPX4 knockout (GPX4-iKO) in BT474 cells, monitored by western blot. (B) Images of resected tumors from mice xenografted with GPX4-iKO BT474 cells. Groups of mice were treated with CCI-779 and/or Dox as indicated (n=6 per group). See Methods for detail. (C) Representative haematoxylin and eosin (H&E) and immunostaining images of GPX4, Ki67, PTGS2 and pS235/236 S6, all counterstained with haematoxylin (blue), are shown from sections of xenografted tumors. Scale bar, 50 μm. (D) Growth curves of BT474 tumors of each group. […]
FIG. 13 A-E. Combination of mTORC1 inhibition with ferroptosis induction leads to tumor regression. […] (B) BT474 tumor volume was measured every day for each mouse. […] (E) PC-3 tumor volume was measured every day for each mouse. […]
17-β-estradiol 60-day release pellets were implanted subcutaneously into the left flank 7 days before tumor inoculation. […] Tumor growth was monitored regularly via external caliper measurements. […] The maximum width (X) and length (Y) of the tumor were measured every day and the volume (V) was calculated using the formula: V=(X2Y)/2. Tumor growth was monitored over time. For all experiments, mice were sacrificed at a pre-determined endpoint. […]

SMILES: CO[C@H]1C[C@@H]2CC[C@@H](C)[C@@](O)(O2)C(=O)C(=O)N2CCCC[C@H]2C(=O)O[C@H]([C@H](C)C[C@@H]2CC[C@@H](OC(=O)C(C)(CO)CO)[C@H](OC)C2)CC(=O)[C@H](C)/C=C(\C)[C@@H](O)[C@@H](OC)C(=O)[C@H](C)C[C@H](C)/C=C/C=C/C=C/1C [CCI-779, Temsirolimus]
- tumor growth: decelerated tumor growth
